According to patent US20220265659A1, “METHODS AND COMPOSITIONS FOR TREATING PAX6-DEFICIENCY RELATED DISEASE” (INSERM (INSTITUT NATIONAL DE LA SANTÉ ET DE AL RECHERCHE …, priority 2019, published 2022):

Legend:
[1] = system: PAX6-target gene expression; test: qRT-PCR analysis of PAX6-target gene expression in rescue experiments; format: cell-based, Human; details: mutated limbal stem cells
Protocol: (§1) Cells and culture conditions: Human mutated limbal epithelial stem cells (mut-LSCs) were obtained by genome editing (Crispr/cas9) of primary limbal stem cells, as described in Roux et al. (Roux, 2018 Stem cells). mut-LSCs and WT controls were cultured, as described earlier (Roux, 2018 Stem cells), in Keratinocyte serum-free medium (K-sfm) (Gibco™, Life Technologies), supplemented with 25 μg/mL Bovine Pituitary Extract (BPE; Gibco™, Life Technologies), 0.2 ng/mL Epidermal Growth Factor (EGF, Peprotech), 0.4 mM CaCl2, 2 mM Glutamine (Gibco™, Life Technologies) and 100 U/mL Penicillin/Streptomicin (Gibco™, Life Technologies). Routine subcultures were obtained by detaching cells with StemPro™ Accutase™ Cell Dissociation Reagent (Gibco™, Life Technologies) and replating at 2,000 cells/cm^2 (T-LSCs) or 3,000 cells/cm^2 (PAX6^+/− T-LSCs). All cells were negative for mycoplasma contamination (monthly tested).
(§2) Rescue experiments: Mut-LSCs were treated with each compound (Duloxetine, Ritanserine and Topotecan) directly added into the culture medium from 0.5 μg/mL to 4 μg/mL. No cell toxicity has been observed up to 10 μg/mL. The optimal concentration for each experiment (qRT-PCR, cell migration and cell adhesion) was 0.5 μg/mL. As positive control, 2 μg/mL recombinant PAX6 protein coupled with an 11R-tag (recPAX6, LD Biopharma Inc) was added, as described elsewhere (Roux et al. 2018 Stem cells).
(§3) qRT-PCR analysis: Cells were treated for 10 h with either compound or recPAX6 for rescue experiments, and harvested as a dry pellet. RNA was then extracted using RNEasy Mini kit (Qiagen) and cDNA were synthetized from 1 μg RNA using iScript cDNA synthesis kit (Bio-Rad). Quantitative PCR were performed in triplicate using […] SYBR Green PCR Master Mix (Absource Biotools). Expression of each gene was calculated using the 2^−ΔΔCt method. Results are presented as fold change normalized to B2M house-keeping gene and relative to control (treated with protein buffer or untreated) T-LSCs. Specific primers sequences used are listed in Suppl.

[2] = system: mutated limbal stem cells (mut-LSCs); test: In vitro migration test on IBIDI chambers; format: cell-based, Human; details: for rescue of cell migration: mutated limbal stem cells
Protocol: as §1
In vitro migration test: WT and mut-LSCs were seeded into culture-inserts 2 well at 25,000 cells per well in 6-well plates (IBIDI®). […] Sixteen hours after plating, the inserts were removed creating a gap of 500 μm between cells. Patches were overlaid with culture medium and closure of the gap was monitored for 10 h, taking pictures at regular time intervals. Gap width was measured using ImageJ 1.49 software (NIH). Results are presented as percent of gap width normalized at 100% at t=0 h.

PAX6 protein = test: Western blot analysis of PAX6 protein production; format: cell-based, Human; parameters: rescue of PAX6 haploinsufficiency in vitro: unit of the concentration uncertain; details: for rescue of the production of endogenous PAX6 protein: mutated limbal stem cells
Protocol: as §1
[…] No cell toxicity has been observed up to 10 μg/mL. […] As positive control, 2 μg/mL recombinant PAX6 protein coupled with an 11R-tag (recPAX6, LD Biopharma Inc) was added, as described elsewhere (Roux et al. 2018 Stem cells).
Western blot analysis: Cells were harvested as a dry pellet, […] recPAX6 protein or its buffer for rescue experiments, lysed in RIPA buffer supplemented with Protease and Phosphatase Inhibitor Cocktail EDTA-Free (Roche) for 15 min on ice and centrifuged for 15 min at 4° C. at 15,000×g. Protein concentration was measured using Pierce BCA Protein Assay kit (Thermo Fisher Scientific) following manufacturer instructions. Thirty micrograms of total protein or 10 ng of recPAX6 protein were loaded on a SDS-PAGE gel (10%), transferred to nitrocellulose membranes using semi-dry method. Membranes were pre-stripped using Re-Blot Plus Strong solution (EMD Millipore) for 15 min, blocked twice for 5 min in 5% milk solution and incubated in primary antibody (PAX6, ab2237, Millipore, 1/1,000) overnight at 4° C. After 3 washing of 10 min in TBS with 0.2% Tween (TBS-T), membranes were incubated for 1 h with secondary antibody (Goat anti-rabbit HRP, BD Pharmingen) diluted in TBS-T 5% milk solution at 1/1,000. Proteins were visualized using chemiluminescence detection (Clarity™ Western ECL Substrate, Bio-Rad) on a gel imaging system (ImageQuant LAS 4000). Membranes were stripped again, incubated 90 min at room temperature with ACTIN (sc1615, 1/500, Santa Cruz) antibody diluted in TBS-T 5% milk, washed 3×10 min in TBS-T and incubated for 1 h in secondary antibody (Rabbit anti-goat HRP, 1/20,000, Jackson ImmunoResearch) at room temperature before revelation. Signal quantifications were made using ImageJ 1.49 software (NIH). Results are presented after ACTIN normalization.

Mut-LSCs = test: Rescue experiments: compound added to the culture medium of Mut-LSCs (cell toxicity, optimal concentration); format: cell-based, Human; details: qRT-PCR, cell migration and cell adhesion
Protocol: as §1, §2

PAX6 = test: qRT-PCR analysis for PAX6 expression with amplicon sequencing; format: cell-based, Human
Protocol: as §1, with “T-LSCs).” for “T-LSCs). All cells were negative for mycoplasma contamination (monthly tested).”
as §3, with “Results are presented as fold change normalized to B2M house-keeping gene and relative to control (treated with protein buffer or untreated) T-LSCs.” left out

[3] = system: limbal stem cells (mut-LSC); details: mut-LSC with a nonsense mutation found in patients; cited from earlier work

| Compound | rescue of PAX6-target gene expression [1] | rescue of cell migration [2] | PAX6 protein production (PAX6 protein; FIG. 5: W mutant limbal cells) | rescue of the production of endogenous PAX6 protein (PAX6 protein) | optimal concentration for each experiment (Mut-LSCs) [µg/mL] | PAX6 protein production (PAX6 protein; FIG. 4: mutated LT (W) cells, western blot, 0.5, 1 or 5 mM) | amplification of the mutated allele (amplicons sequenced) (PAX6; FIG. 3: mut-LSCs + Topotecan) | WT allele transcription (PAX6 expression by qRT-PCR) (PAX6; FIG. 3: mutated cells (mut-LSC)) | PAX6 expression by qRT-PCR (PAX6; FIG. 3: treated WT-LSCs (normal LSCs)) | rescue of PAX6 gene expression at the RNA level (PAX6; mutated limbal stem cells) | rescue of migration of mutated limbal cells ([2]; FIG. 2: mut-LT, 0.5 µg/mL, 2 h before migration start, IBIDI chambers) | rescue of PAX6 haploinsufficiency in vitro (PAX6 protein; FIG. 1: mut-LT limbal stem cells, 0.5 (unit uncertain), 10 h, qRT-PCR for PAX6-target gene expression (A), western blot for PAX6 protein (B)) | rescue of altered PAX6 target gene expression, cell adhesion, cell migration and proliferation [3] |
| --- | --- | --- | --- | --- | --- | --- | --- | --- | --- | --- | --- | --- | --- |
| CNCC[C@H](Oc1cccc2ccccc12)c1cccs1 [Duloxetine, duloxetine] | able to rescue | able to rescue | rescued | able to rescue | 0.5 |  |  |  |  |  |  |  |  |
| Cc1nc2sccn2c(=O)c1CCN1CCC(=C(c2ccc(F)cc2)c2ccc(F)cc2)CC1 [Ritanserine, ritanserin] | able to rescue | able to rescue |  | able to rescue | 0.5 | rescued |  |  |  |  |  |  |  |
| CC[C@@]1(O)C(=O)OCc2c1cc1n(c2=O)Cc2cc3c(CN(C)C)c(O)ccc3nc2-1 [Topotecan, topotecan] | able to rescue | able to rescue |  | able to rescue | 0.5 |  | did not identified any amplification | activates | not enhanced | able to rescue | can rescue | can rescue |  |
| recombinant PAX6 protein: recombinant PAX6 protein coupled with an 11R-tag (recPAX6, LD Biopharma Inc), positive control |  |  |  |  |  |  |  |  |  |  |  |  | rescued |
